Experimental data published in PMC6274026 (Molecules, 2016).
“And” between values parts separate entries of the source, which are not always exact repeats. Equal values may be shown once. Read-outs that look alike come from different tables or passages of the source.

Key:
MCF-7 [1] = test: Clonogenicity (recovery) assay, 72 h post-treatment, SRB; settings: for percentage of recovery: MCF-7, 0.08 µg/mL, 72 h post-treatment; for effect on proliferation and recovery after treatment: MCF-7, 10, 2, and 0.4 µg/mL, in words
MCF-7 [2] = settings: for Selectivity index: IC50 MCF-10A / IC50 MCF-7; for percentage of survival: MCF-7, 0.08 µg/mL, 72 h; for Potency compared to control POD: MCF-7, relative to POD; for Potency compared to control VP-16: MCF-7, relative to VP-16; for IC50: read-out: Cytotoxic activity IC50, MCF-7, 72 h, mean of three independent experiments ± S.D.
in vitro = settings: human, Cytotoxic activity IC50, MCF-10A, 72 h, mean of three independent experiments ± S.D.
MDA-MB-231 [3] = test: Clonogenicity (recovery) assay, 72 h post-treatment, SRB; settings: for percentage of recovery: 72 h post-treatment; for effect on proliferation and recovery after treatment: in words
BT-549 [4] = settings: for percentage of survival: 72 h; for Potency compared to control POD: BT-549, relative to POD; for Potency compared to control VP-16: BT-549, relative to VP-16; for selectivity according to the selectivity criteria (SI ≥ 10 selective): BT-549 vs MCF-10A, in words; for IC50: read-out: Cytotoxic activity IC50, BT-549, 72 h, mean of three independent experiments ± S.D.
MDA-MB-231 [5] = settings: for Selectivity index: IC50 MCF-10A / IC50 MDA-MB-231; for percentage of survival: 72 h; for Potency compared to control POD: MDA-MB-231, relative to POD; for Potency compared to control VP-16: MDA-MB-231, relative to VP-16; for IC50: read-out: Cytotoxic activity IC50, MDA-MB-231, 72 h, mean of three independent experiments ± S.D.
MCF-10A [6] = test: Clonogenicity (recovery) assay, 72 h post-treatment, SRB
anthrax lethal toxin = settings: qHTS, ME-180 cells, in words; cited from earlier work
BT-549 [7] = test: Clonogenicity (recovery) assay, 72 h post-treatment, SRB; settings: for percentage of recovery: 72 h post-treatment; for effect on proliferation and recovery after treatment: in words
[8] = system: human protein tyrosyl-DNA phosphodiesterase 1 (TDP1); set-up: method as in ref 29 = [29]; 29. NCBI, National Center for Biotechnology Information PubChem BioAssay Database 2013 AID=686981 Available online: https://pubchem.ncbi.nlm.nih.gov/bioassay/686981 (accessed on 30 March 2016); settings: qHTS, DT40 cell line, in words; cited from earlier work
MCF-10A [9] = settings: for Potency compared to control POD: relative to POD; for Potency compared to control VP-16: relative to VP-16
Lewis lung carcinoma = system: Lewis lung carcinoma; set-up: method as in ref 31 = [31]; 31. NCBI, National Center for Biotechnology Information PubChem BioAssay Database 2007 AID=192, 256 and 270 Available online: https://pubchem.ncbi.nlm.nih.gov/bioassay/192, 256, and 270 (accessed on 3); settings: subcutaneous inoculation, in words; cited from earlier work

| Structure (SMILES) | percentage of recovery (MCF-7 [1]) | effect on proliferation and recovery after treatment (MCF-7 [1]) | Selectivity index (MCF-7 [2]) | percentage of survival (MCF-7 [2]) | Potency compared to control POD (MCF-7 [2]) | Potency compared to control VP-16 (MCF-7 [2]) | IC50 (MCF-7 [2]) | IC50 at 72 h (in vitro) | Potency compared to control POD (BT-549 [4]) | Potency compared to control VP-16 (BT-549 [4]) | selectivity according to the selectivity criteria (SI ≥ 10 selective) (BT-549 [4]) | IC50 (BT-549 [4]) | Selectivity index (MDA-MB-231 [5]) | Potency compared to control POD (MDA-MB-231 [5]) | Potency compared to control VP-16 (MDA-MB-231 [5]) | IC50 (MDA-MB-231 [5]) | Potency compared to control POD (MCF-10A [9]) | Potency compared to control VP-16 (MCF-10A [9]) | further results |
| --- | --- | --- | --- | --- | --- | --- | --- | --- | --- | --- | --- | --- | --- | --- | --- | --- | --- | --- | --- |
| COc1cc([C@@H]2c3cc4c(cc3[C@H](OC(C)=O)[C@H]3COC(=O)[C@H]23)OCO4)cc(OC)c1OC [Compound 2, acetylpodophyllotoxin] | 209% ± 12.4% | dose-dependently inhibited the proliferation and the recovery of cells | 2.42 | 121% ± 10.8% | 0.135 | 0.942 | 132 ± 17 nM | 318 ± 12 nM | 0.465 | 14.1 and 14.151 | selective compound | 11 ± 4 nM | 1.77 | 0.136 | 0.217 | 180 ± 3 nM | 0.062 | 0.147 | percentage of recovery (MDA-MB-231 [3]; MDA-MB-231, 0.4 µg/mL): 36% ± 16.8%; percentage of recovery (MDA-MB-231 [3]; MDA-MB-231, 0.8 µg/mL): 194% ± 14.7%; effect on proliferation and recovery after treatment (MDA-MB-231 [3]; MDA-MB-231, 10 and 2 µg/mL): completely inhibited proliferation and prevented recovery; percentage of survival (BT-549 [4]; BT-549, 0.08 µg/mL): 96% ± 5.5%; percentage of survival (BT-549 [4]; BT-549, 0.4 µg/mL): 61% ± 10.6%; percentage of survival (MDA-MB-231 [5]; MDA-MB-231, 0.08 µg/mL): 101% ± 5.7%; percentage of survival (MDA-MB-231 [5]; MDA-MB-231, 0.4 µg/mL): 21% ± 0.6%; percentage of recovery (MCF-10A [6]; MCF-10A, 0.08 µg/mL, 72 h post-treatment): 85% ± 4.5%; effect on proliferation and recovery after treatment (MCF-10A [6]; MCF-10A, 10, 2, and 0.4 µg/mL, in words): dose-dependently inhibited the proliferation and the recovery of cells; effect on anthrax lethal toxin internalization (anthrax lethal toxin): interferes in the internalization process; percentage of recovery (BT-549 [7]; BT-549, 0.4 µg/mL): around 114% ± 18.5%; percentage of recovery (BT-549 [7]; BT-549, 0.8 µg/mL (same concentrations)): ~191% ± 27.1%; effect on proliferation and recovery after treatment (BT-549 [7]; BT-549, 10 and 2 µg/mL): completely inhibited proliferation and prevented recovery; inhibitory activity against TDP1 [8]: inhibitory activity; percentage of survival (MCF-10A [9]; 0.08 µg/mL, 72 h): 61% ± 7.8% |
| COc1ccc([C@@H]2c3cc4c(cc3C[C@H]3COC(=O)[C@@H]32)OCO4)cc1OC [Compound 3, 5′-demethoxydeoxypodophyllotoxin] | 111% ± 13% | cytotoxicity with a lack of recovery | 2.33 | 55% ± 9.9% | 0.449 | 3.124 | 40 ± 11 nM | 90 ± 9 nM | 0.252 | 7.6 and 7.661 | non-selective compound | 21 ± 3 nM | 0.64 | 0.168 | 0.268 | 145 ± 45 nM | 0.214 | 0.507 | biological activity in Lewis lung carcinoma model (Lewis lung carcinoma): did not show biological activities; effect on proliferation and recovery after treatment (MDA-MB-231 [3]; MDA-MB-231, 10, 2, and 0.4 µg/mL): cytotoxicity with a lack of recovery; effect on proliferation in the cytotoxicity and clonogenicity assays (MCF-10A [6]; MCF-10A, the four tested concentrations, in words): completely inhibited proliferation; effect on proliferation and recovery after treatment (BT-549 [7]; BT-549, 10, 2, and 0.4 µg/mL): cytotoxicity with a lack of recovery; IC50 (MCF-10A [9]; read-out: Cytotoxic activity IC50, 72 h, mean of three independent experiments ± S.D.): 92 ± 9 nM |
